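These data come from cells grown in 96-well plates and exposed to compound for 48 hours at five concentrations. TGI is the concentration that stops growth completely.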
Key:
Assay in all cases: growth of human tumour cells (NCI), 48 h
[1] = test system: MDA-MB-231 breast
[2] = test system: SK-OV-3 ovarian
[3] = test system: M14 melanoma
[4] = test system: HS 578T breast
[5] = test system: UO-31 renal
[6] = test system: SK-MEL-2 melanoma
[7] = test system: HOP-62 NSCLC
[8] = test system: TK-10 renal
[9] = test system: HCT-15 colon
[10] = test system: NCI-H460 lung
[11] = test system: LOX IMVI melanoma
[12] = test system: NCI-H23 lung
[13] = test system: MOLT-4 leukemia
[14] = test system: ACHN renal
[15] = test system: SN12C renal
[16] = test system: NCI-H522 lung
[17] = test system: UACC-62 melanoma
[18] = test system: A549 NSCLC
[19] = test system: 786-0 renal
[20] = test system: SF-539 CNS
[21] = test system: SF-268 CNS
[22] = test system: SNB-75 CNS
[23] = test system: MALME-3M melanoma
[24] = test system: MCF7 breast
[25] = test system: SNB-19 CNS
[26] = test system: HCT-116 colon
[27] = test system: DU-145 prostate
[28] = test system: NCI/ADR-RES ovarian
[29] = test system: MDA-MB-435
[30] = test system: SK-MEL-5 melanoma
[31] = test system: KM12 colon
[32] = test system: HL-60(TB) leukemia
[33] = test system: OVCAR-4 ovarian
[34] = test system: HOP-92 NSCLC
[35] = test system: BT-549 breast
[36] = test system: U251 CNS
[37] = test system: SR leukemia
[38] = test system: K-562 leukemia
[39] = test system: SW-620 colon
[40] = test system: SK-MEL-28 melanoma
[41] = test system: CCRF-CEM leukemia
[42] = test system: HCC-2998 colon
[43] = test system: EKVX NSCLC
[44] = test system: RPMI-8226 leukemia
[45] = test system: OVCAR-5 ovarian
[46] = test system: NCI-H226 lung
[47] = test system: HT29 colon
[48] = test system: OVCAR-3 ovarian
[49] = test system: UACC-257 melanoma
[50] = test system: OVCAR-8 ovarian
[51] = test system: MDA-N
[52] = test system: SF-295 CNS
[53] = test system: A498 renal
[54] = test system: COLO 205 colon
[55] = test system: CAKI-1 renal
[56] = test system: PC-3 prostate
[57] = test system: T-47D breast
[58] = test system: IGROV1 ovarian
[59] = test system: RXF 393 renal

## CC1(F)C=CC(=O)C=C1
[1]
  TGI: > 100 µM
[2]
  TGI: > 100 µM
[3]
  TGI: > 100 µM
[4]
  TGI: > 100 µM
[5]
  TGI: > 100 µM
[6]
  TGI: > 100 µM
[7]
  TGI: > 100 µM
[8]
  TGI: > 100 µM
[9]
  TGI: 45.7 µM
[10]
  TGI: > 100 µM
[11]
  TGI: 31.4 µM
[12]
  TGI: > 100 µM
[13]
  TGI: > 100 µM
[14]
  TGI: > 100 µM
[15]
  TGI: > 100 µM
[16]
  TGI: > 100 µM
[17]
  TGI: > 100 µM
[18]
  TGI: > 100 µM
[19]
  TGI: 35 µM
[20]
  TGI: > 100 µM
[21]
  TGI: > 100 µM
[22]
  TGI: > 100 µM
[23]
  TGI: 68.9 µM
[24]
  TGI: > 100 µM
[25]
  TGI: > 100 µM
[26]
  TGI: > 100 µM
[27]
  TGI: > 100 µM
[28]
  TGI: 34.8 µM
[29]
  TGI: > 100 µM
[30]
  TGI: > 100 µM
[31]
  TGI: > 100 µM
[32]
  TGI: 93.1 µM
[33]
  TGI: > 100 µM
[34]
  TGI: 72.1 µM
[35]
  TGI: > 100 µM
[36]
  TGI: > 100 µM
[37]
  TGI: > 100 µM
[38]
  TGI: > 100 µM
[39]
  TGI: 42.3 µM
[40]
  TGI: > 100 µM
[41]
  TGI: > 100 µM
[42]
  TGI: > 100 µM
[43]
  TGI: > 100 µM
[44]
  TGI: > 100 µM
[45]
  TGI: > 100 µM
[46]
  TGI: > 100 µM
[47]
  TGI: > 100 µM
[48]
  TGI: > 100 µM
[49]
  TGI: > 100 µM
[50]
  TGI: 42.7 µM
[51]
  TGI: > 100 µM
[52]
  TGI: > 100 µM
[53]
  TGI: > 100 µM
[54]
  TGI: > 100 µM
[55]
  TGI: > 100 µM
[56]
  TGI: > 100 µM

## Cc1cc(C#N)c[n+](C)c1
[1]
  TGI: > 100 µM
[2]
  TGI: > 100 µM
[3]
  TGI: > 100 µM
[4]
  TGI: > 100 µM
[57]
  TGI: > 100 µM
[5]
  TGI: > 100 µM
[6]
  TGI: > 100 µM
[7]
  TGI: > 100 µM
[8]
  TGI: > 100 µM
[9]
  TGI: > 100 µM
[10]
  TGI: > 100 µM
[12]
  TGI: > 100 µM
[13]
  TGI: > 100 µM
[58]
  TGI: > 100 µM
[14]
  TGI: > 100 µM
[15]
  TGI: > 100 µM
[16]
  TGI: > 100 µM
[17]
  TGI: > 100 µM
[18]
  TGI: > 100 µM
[19]
  TGI: > 100 µM
[20]
  TGI: > 100 µM
[21]
  TGI: > 100 µM
[22]
  TGI: > 100 µM
[23]
  TGI: > 100 µM
[24]
  TGI: > 100 µM
[25]
  TGI: > 100 µM
[26]
  TGI: > 100 µM
[27]
  TGI: > 100 µM
[28]
  TGI: > 100 µM
[30]
  TGI: > 100 µM
[31]
  TGI: > 100 µM
[32]
  TGI: > 100 µM
[33]
  TGI: > 100 µM
[35]
  TGI: > 100 µM
[36]
  TGI: > 100 µM
[37]
  TGI: > 100 µM
[38]
  TGI: > 100 µM
[39]
  TGI: > 100 µM
[40]
  TGI: > 100 µM
[41]
  TGI: > 100 µM
[42]
  TGI: > 100 µM
[43]
  TGI: > 100 µM
[45]
  TGI: > 100 µM
[46]
  TGI: > 100 µM
[47]
  TGI: > 100 µM
[48]
  TGI: > 100 µM
[49]
  TGI: > 100 µM
[50]
  TGI: > 100 µM
[51]
  TGI: > 100 µM
[52]
  TGI: > 100 µM
[53]
  TGI: > 100 µM
[59]
  TGI: > 100 µM
[54]
  TGI: > 100 µM
[55]
  TGI: > 100 µM
[56]
  TGI: > 100 µM

## CC1=NCC[N+]1(CCc1ccccc1)Cc1ccccc1 (stereo not given)
[1]
  TGI: > 100 µM
[2]
  TGI: > 100 µM
[3]
  TGI: > 100 µM
[4]
  TGI: > 100 µM
[57]
  TGI: > 100 µM
[5]
  TGI: > 100 µM
[6]
  TGI: > 100 µM
[7]
  TGI: > 100 µM
[8]
  TGI: > 100 µM
[9]
  TGI: > 100 µM
[10]
  TGI: > 100 µM
[11]
  TGI: > 100 µM
[12]
  TGI: > 100 µM
[58]
  TGI: > 100 µM
[14]
  TGI: > 100 µM
[15]
  TGI: > 100 µM
[16]
  TGI: 72.3 µM
[17]
  TGI: > 100 µM
[18]
  TGI: > 100 µM
[19]
  TGI: > 100 µM
[21]
  TGI: > 100 µM
[22]
  TGI: > 100 µM
[23]
  TGI: > 100 µM
[24]
  TGI: > 100 µM
[25]
  TGI: > 100 µM
[26]
  TGI: > 100 µM
[27]
  TGI: > 100 µM
[28]
  TGI: > 100 µM
[30]
  TGI: > 100 µM
[31]
  TGI: > 100 µM
[32]
  TGI: 68.7 µM
[33]
  TGI: > 100 µM
[34]
  TGI: 49.8 µM
[35]
  TGI: > 100 µM
[36]
  TGI: > 100 µM
[37]
  TGI: > 100 µM
[38]
  TGI: 31 µM
[39]
  TGI: > 100 µM
[40]
  TGI: > 100 µM
[41]
  TGI: > 100 µM
[42]
  TGI: > 100 µM
[43]
  TGI: > 100 µM
[44]
  TGI: 69.8 µM
[45]
  TGI: > 100 µM
[46]
  TGI: > 100 µM
[47]
  TGI: > 100 µM
[48]
  TGI: 91 µM
[49]
  TGI: 91.7 µM
[50]
  TGI: > 100 µM
[51]
  TGI: > 100 µM
[52]
  TGI: > 100 µM
[53]
  TGI: > 100 µM
[59]
  TGI: > 100 µM
[54]
  TGI: 21.5 µM
